Results reported in patent US20020137929A1, “1 - (3-heterocyclylphenyl) isothiourea, -isourea, -guanidine and -amidine herbicidal agents” (Intellectual Property Department, BASF Aktiengesellschaft, priority 1998, published 2002).

Experiments:
[1] = test system: ABUTH (Velvetleaf); assay: Preemergence herbicidal evaluation; type: in vivo, Abutilon theophrasti; settings: rated 4-5 weeks after treatment, rating scale 0-9
How it was run: (§1)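 Seeds were mixed with potting soil and planted on about one inch of soil, then sprayed with test compound in aqueous acetone at about 0.0156 to 0.500 kg per hectare. Plants grew under standard greenhouse care and were visually rated 0-9 against untreated controls 4-5 weeks post-treatment.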

[2] = test system: ECHORC (Watergrass (Calif.)); assay: Preemergence weed control under flooded paddy conditions; type: in vivo, Echinochloa oryzoides; settings: rated 3-4 weeks after treatment
How it was run: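 Silt loam, seeds in top 0.5 cm; flood held 1.5-3 cm; test cpd as acetone/water 50/50 into flood water, ~0.0313-0.500 kg/ha a.i.; greenhouse 3-4 wk; visual 0-9 score vs control.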

[3] = test system: CASOB (Sicklepod); assay: Preemergence herbicidal evaluation; type: in vivo, Cassia obtusifolia; settings: rated 4-5 weeks after treatment, rating scale 0-9
How it was run: as §1

[4] = test system: CYPSE (Flatsedge); assay: Preemergence weed control under flooded paddy conditions; type: in vivo, Cyperus serotinus; settings: rated 3-4 weeks after treatment
How it was run: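 Using flooded silt loam (water 1.5 to 3 cm deep), seeds sown in the top 0.5 cm were exposed preemergence to compound pipetted into the flood at about 0.0313 to 0.500 kg/ha. Effects were scored 0-9 by eye three to four weeks later.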

[5] = test system: AMBEL (Ragweed, Common); assay: Preemergence herbicidal evaluation; type: in vivo, Ambrosia artemisifolia; settings: rated 4-5 weeks after treatment, rating scale 0-9
How it was run: as §1

[6] = test system: ZEAMX (Corn, Field); assay: Postemergence herbicidal evaluation; type: in vivo, Zea mays; settings: postemergence
How it was run: (§2)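 ~2-wk seedlings; postemergence spray, 40 psi; vehicle 1:1 acetone:water + 0.5% Tween 20; rate ≈0.0156–0.500 kg/ha; greenhouse hold; scored 4–5 wk after treatment, 0–9 scale vs control; repeat tests averaged.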

[7] = test system: IPOHE (Morningglory, Ivyleaf); assay: Preemergence herbicidal evaluation; type: in vivo, Ipomoea hederacea; settings: rated 4-5 weeks after treatment, rating scale 0-9
How it was run: as §1

[8] = test system: SETVI (Foxtail, Green); assay: Postemergence herbicidal evaluation; type: in vivo, Setaria viridis; settings: postemergence
How it was run: as §2

[9] = test system: GLXMAW (Soybean, Williams); assay: Postemergence herbicidal evaluation; type: in vivo, Glycine max, (L.) Merr. cv Williams; settings: postemergence
How it was run: as §2

[10] = test system: ABUTH (Velvetleaf); assay: Postemergence herbicidal evaluation; type: in vivo, Abutilon theophrasti; settings: postemergence
How it was run: as §2

[11] = test system: IPOHE (Morningglory, Ivyleaf); assay: Postemergence herbicidal evaluation; type: in vivo, Ipomoea hederacea; settings: postemergence
How it was run: as §2

[12] = test system: ECHCG (Barnyardgrass); assay: Preemergence herbicidal evaluation; type: in vivo, Echinochloa crus-galli; settings: rated 4-5 weeks after treatment, rating scale 0-9
How it was run: as §1

CN(C)c1ccc(CN2C(=O)CSC2=Nc2cc(-n3c(=O)cc(C(F)(F)F)n(C)c3=O)c(F)cc2Cl)cc1 [Compound 138, 3-{4-Chloro-5-{{3-[p-(dimethylamino)benzyl]-4-oxo-2-thiazolidinylidene}amino}-2-fluorophenyl}-1-methyl-6-(trifluoromethyl)-2,4(1H,3H)-pyrimidinedione]
Preemergence herbicidal rating ABUTH ([1]; rate 0.0156 kg/ha): 0.0 | Preemergence herbicidal rating ABUTH ([1]; rate 0.0313 kg/ha): 0.0 | Preemergence herbicidal rating ABUTH ([1]; rate 0.0625 kg/ha): 0.0 | Preemergence herbicidal rating ABUTH ([1]; rate 0.1250 kg/ha): 9.0 | Preemergence herbicidal rating ABUTH ([1]; rate 0.2500 kg/ha): 9.0 | herbicidal effect rating, ECHORC ([2]; 0.0313 kg/ha): 7.0 | herbicidal effect rating, ECHORC ([2]; 0.0625 kg/ha): 9.0 | herbicidal effect rating, ECHORC ([2]; 0.1250 kg/ha): 9.0 | herbicidal effect rating, ECHORC ([2]; 0.2500 kg/ha): 9.0 | Preemergence herbicidal rating CASOB ([3]; rate 0.0156 kg/ha): 0.0 | Preemergence herbicidal rating CASOB ([3]; rate 0.0313 kg/ha): 0.0 | Preemergence herbicidal rating CASOB ([3]; rate 0.0625 kg/ha): 0.0 | Preemergence herbicidal rating CASOB ([3]; rate 0.1250 kg/ha): 0.0 | Preemergence herbicidal rating CASOB ([3]; rate 0.2500 kg/ha): 0.0 | herbicidal effect rating, CYPSE ([4]; 0.0313 kg/ha): 0.0 | herbicidal effect rating, CYPSE ([4]; 0.0625 kg/ha): 0.0 | herbicidal effect rating, CYPSE ([4]; 0.1250 kg/ha): 0.0 | herbicidal effect rating, CYPSE ([4]; 0.2500 kg/ha): 0.0 | Preemergence herbicidal rating AMBEL ([5]; rate 0.0156 kg/ha): 0.0 | Preemergence herbicidal rating AMBEL ([5]; rate 0.0313 kg/ha): 0.0 | Preemergence herbicidal rating AMBEL ([5]; rate 0.0625 kg/ha): 0.0 | Preemergence herbicidal rating AMBEL ([5]; rate 0.1250 kg/ha): 1.0 | Preemergence herbicidal rating AMBEL ([5]; rate 0.2500 kg/ha): 2.0 | Herbicidal rating ZEAMX ([6]; rate 0.0156 kg/ha): 4.0 | Herbicidal rating ZEAMX ([6]; rate 0.0313 kg/ha): 4.5 | Herbicidal rating ZEAMX ([6]; rate 0.0625 kg/ha): 5.0 | Preemergence herbicidal rating IPOHE ([7]; rate 0.0156 kg/ha): 0.0 | Preemergence herbicidal rating IPOHE ([7]; rate 0.0313 kg/ha): 0.0 | Preemergence herbicidal rating IPOHE ([7]; rate 0.0625 kg/ha): 0.0 | Preemergence herbicidal rating IPOHE ([7]; rate 0.1250 kg/ha): 0.0 | Preemergence herbicidal rating IPOHE ([7]; rate 0.2500 kg/ha): 0.0 | Herbicidal rating SETVI ([8]; rate 0.0156 kg/ha): 3.0 | Herbicidal rating SETVI ([8]; rate 0.0313 kg/ha): 4.0 | Herbicidal rating SETVI ([8]; rate 0.0625 kg/ha): 9.0 | Herbicidal rating GLXMAW ([9]; rate 0.0156 kg/ha): 5.0 | Herbicidal rating GLXMAW ([9]; rate 0.0313 kg/ha): 6.0 | Herbicidal rating GLXMAW ([9]; rate 0.0625 kg/ha): 6.5 | Herbicidal rating ABUTH ([10]; rate 0.0156 kg/ha): 9.0 | Herbicidal rating ABUTH ([10]; rate 0.0313 kg/ha): 9.0 | Herbicidal rating ABUTH ([10]; rate 0.0625 kg/ha): 9.0 | Herbicidal rating IPOHE ([11]; rate 0.0156 kg/ha): 9.0 | Herbicidal rating IPOHE ([11]; rate 0.0313 kg/ha): 9.0 | Herbicidal rating IPOHE ([11]; rate 0.0625 kg/ha): 9.0 | Preemergence herbicidal rating ECHCG ([12]; rate 0.0156 kg/ha): 0.0 | Preemergence herbicidal rating ECHCG ([12]; rate 0.0313 kg/ha): 0.0 | Preemergence herbicidal rating ECHCG ([12]; rate 0.0625 kg/ha): 0.0 | Preemergence herbicidal rating ECHCG ([12]; rate 0.1250 kg/ha): 0.0 | Preemergence herbicidal rating ECHCG ([12]; rate 0.2500 kg/ha): 0.0

COc1cc(CN2C(=O)CSC2=Nc2cc(-n3c(=O)cc(C(F)(F)F)n(C)c3=O)c(F)cc2Cl)cc(OC)c1OC [Compound 140, 3-{4-Chloro-2-fluoro-5-{[3-(3,4,5-trimethoxybenzyl)-4-oxo-2-thiazolidinylidene]amino}phenyl}-1-methyl-6-(trifluoromethyl)-2,4(1H,3H)-pyrimidinedione]
Preemergence herbicidal rating ABUTH ([1]; rate 0.0625 kg/ha): 0.0 | Preemergence herbicidal rating ABUTH ([1]; rate 0.1250 kg/ha): 3.0 | Preemergence herbicidal rating ABUTH ([1]; rate 0.2500 kg/ha): 7.0 | herbicidal effect rating, ECHORC ([2]; 0.0313 kg/ha): 5.0 | herbicidal effect rating, ECHORC ([2]; 0.0625 kg/ha): 5.0 | herbicidal effect rating, ECHORC ([2]; 0.1250 kg/ha): 7.0 | herbicidal effect rating, ECHORC ([2]; 0.2500 kg/ha): 7.0 | Preemergence herbicidal rating CASOB ([3]; rate 0.0625 kg/ha): 0.0 | Preemergence herbicidal rating CASOB ([3]; rate 0.1250 kg/ha): 0.0 | Preemergence herbicidal rating CASOB ([3]; rate 0.2500 kg/ha): 0.0 | herbicidal effect rating, CYPSE ([4]; 0.0313 kg/ha): 0.0 | herbicidal effect rating, CYPSE ([4]; 0.0625 kg/ha): 0.0 | herbicidal effect rating, CYPSE ([4]; 0.1250 kg/ha): 0.0 | herbicidal effect rating, CYPSE ([4]; 0.2500 kg/ha): 0.0 | Preemergence herbicidal rating AMBEL ([5]; rate 0.0625 kg/ha): 0.0 | Preemergence herbicidal rating AMBEL ([5]; rate 0.1250 kg/ha): 0.0 | Preemergence herbicidal rating AMBEL ([5]; rate 0.2500 kg/ha): 0.0 | Herbicidal rating ZEAMX ([6]; rate 0.0156 kg/ha): 3.5 | Herbicidal rating ZEAMX ([6]; rate 0.0313 kg/ha): 4.0 | Herbicidal rating ZEAMX ([6]; rate 0.0625 kg/ha): 4.0 | Preemergence herbicidal rating IPOHE ([7]; rate 0.0625 kg/ha): 0.0 | Preemergence herbicidal rating IPOHE ([7]; rate 0.1250 kg/ha): 3.0 | Preemergence herbicidal rating IPOHE ([7]; rate 0.2500 kg/ha): 3.0 | Herbicidal rating SETVI ([8]; rate 0.0156 kg/ha): 0.0 | Herbicidal rating SETVI ([8]; rate 0.0313 kg/ha): 0.0 | Herbicidal rating SETVI ([8]; rate 0.0625 kg/ha): 0.0 | Herbicidal rating GLXMAW ([9]; rate 0.0156 kg/ha): 3.5 | Herbicidal rating GLXMAW ([9]; rate 0.0313 kg/ha): 4.5 | Herbicidal rating GLXMAW ([9]; rate 0.0625 kg/ha): 5.5 | Herbicidal rating ABUTH ([10]; rate 0.0156 kg/ha): 4.0 | Herbicidal rating ABUTH ([10]; rate 0.0313 kg/ha): 4.0 | Herbicidal rating ABUTH ([10]; rate 0.0625 kg/ha): 9.0 | Herbicidal rating IPOHE ([11]; rate 0.0156 kg/ha): 9.0 | Herbicidal rating IPOHE ([11]; rate 0.0313 kg/ha): 9.0 | Herbicidal rating IPOHE ([11]; rate 0.0625 kg/ha): 9.0 | Preemergence herbicidal rating ECHCG ([12]; rate 0.0625 kg/ha): 0.0 | Preemergence herbicidal rating ECHCG ([12]; rate 0.1250 kg/ha): 0.0 | Preemergence herbicidal rating ECHCG ([12]; rate 0.2500 kg/ha): 0.0
